Measurements from patent US11407765B2, “Tetracyclic heteroaryl compounds” (AstraZeneca AB, priority 2018, dated 2022).
Like-named read-outs stand apart in the source and are kept apart here.

Experiments:
KRasG12C [1] = biological target: T1, KRasG12C (Homo sapiens, UniProt P01116, G12C); assay: KRasG12C functional assay (HTRF, SOS-mediated nucleotide exchange / Raf RBD binding); type: biochemical; conditions: 4 hrs incubation with GDP loaded biotinylated KRasG12C, single experiment or average of two or more
T1 construct: biotin (biotinylated); made in house
T1 sequence (P01116 1-188 isoform P01116-2 G12C): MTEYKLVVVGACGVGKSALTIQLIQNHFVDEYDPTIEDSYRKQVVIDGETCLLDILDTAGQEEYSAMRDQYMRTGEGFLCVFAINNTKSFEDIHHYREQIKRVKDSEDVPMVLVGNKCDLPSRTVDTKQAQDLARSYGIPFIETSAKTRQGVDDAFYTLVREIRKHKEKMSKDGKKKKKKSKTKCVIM
Procedure: KRasG12C Functional Assay
All enzyme and substrate solutions were prepared in assay buffer containing 20 mM HEPES (pH 7.5), 5 mM MgCl2, 150 mM NaCl, and 0.01% Tween 20. […] In a separate mix 20 nM GST-Raf Ras binding domain (GST-Raf RBD, purified in house) and 4 μg/ml anti-GST XL665 antibody (Cisbio) was prepared in assay buffer containing 50 mM Potassium Fluoride and 0.05 mg/ml BSA and equilibrated for 4 hours before adding 0.6 μM Guanosine 5′-[γ-thio]triphosphate (GTPγS, Sigma) and 0.08 μM SOS (purified in house). 5 μl of the GST-RAF RBD mix was then dispensed into each well of the assay plate. […] This is detected simultaneously via the specific binding interaction between active GTPγS KRas^G12C with GST-Raf RBD which brings the europium and XL665 into close proximity enabling an increased FRET signal to be detected on a Pherastar (BMG) plate reader equipped with the HTRF filter module. […] IC50 values were calculated from normalised dose-response response FRET data curve fitted in Genedata screener (Basel, Switzerland).

KRasG12C [2] = biological target: T1, KRasG12C; assay: KRasG12C mass spectrometry adducting assay; type: binding; conditions: 10 μM test compound, 4 μM GDP loaded KRasG12C, 4 hours
Procedure: KRasG12C Mass Spectrometry Adducting Assay
Enzyme solutions were prepared in assay buffer containing 20 mM HEPES (pH 7.5), 5 mM MgCl2, and 150 mM NaCl. […] The plate was sealed before reading on a Xevo G2 QTOF (Waters) and Acquity LC system (Waters). 10 μl of sample was injected onto a Xbridge BEH300; C4; 3.5 um; 2.1×50 mm column (Waters) running a 3 minute gradient. Blank samples were run in between each test sample.
Data was analysed in Mass Lynx software (Waters), the Total ion count (TIC) trace was used and the eluted protein peak data combined. Using the combined spectrum the data was deconvoluted using MaxEnt1 method. The peak area for apo-protein KRas^G12C (APO) and KRAS+relative cmpd mass (adduct) were measured, and a percentage adduct was calculated using the following calculation: Percent adduct=100*(area of adduct peak/(sum of APO+adduct peaks)

[3] = read-out: KRasG12C functional assay IC50 value
[4] = KRasG12C functional assay IC50 value

| SMILES | IC50 (KRasG12C [1]; [3]) | KRasG12C M. S. Binding Mean adduct % (KRasG12C [2]) | IC50 (KRasG12C [1]; [4]) |
| --- | --- | --- | --- |
| C=CC(=O)N1CCN2c3ncnc4c(F)c(-c5c(C)ccc6cc[nH]c(=O)c56)c(Cl)c(c34)OC[C@@H]2C1 (single isomer, unassigned) [Example 16] | 10 nM | 91% |  |
| Cc1ccc2[nH]cnc2c1-c1c(Cl)c2c3c(ncnc3c1F)N1C[C@@H](C)N(C(=O)/C=C/CN(C)C)C[C@H]1CO2 (single isomer, unassigned) [Example 51] | 1750 nM |  |  |
| C=CC(=O)N1CCN2c3ncnc4c(F)c(-c5c(F)ccc6c5ncn6C)c(Cl)c(c34)OC[C@@H]2C1 (single isomer, unassigned) [Example 24] | 97 nM | 99% |  |
| C=CC(=O)N1CCN2c3ncnc4c(F)c(-c5c(F)ccc6[nH]cnc56)c(Cl)c(c34)OC[C@@H]2C1 (single isomer, unassigned) [Example 21] | 1310 nM |  |  |
| C=CC(=O)N1CCN2c3ncnc4c(F)c(-c5c(C)cccc5O)c(Cl)c(c34)OC[C@@H]2C1 (single isomer, unassigned) [Example 13] | 9700 nM |  |  |
| C=CC(=O)N1CCN2c3ncnc4c(F)c(-c5c(C)ccc6[nH]cnc56)c(Cl)c(c34)OC[C@@H]2C1 (single isomer, unassigned) [Example 9] | 230 nM | 22% |  |
| C=CC(=O)N1CCN2c3ncnc4c(F)c(-c5c(C)ccc6nc[nH]c(=O)c56)c(Cl)c(c34)OC[C@@H]2C1 (single isomer, unassigned) [Example 7] | 7630 nM |  |  |
| C=CC(=O)N1C[C@H]2COc3c(Cl)c(-c4c(C)ccc5cc[nH]c(=O)c45)c(F)c4ncnc(c34)N2C[C@H]1C (single isomer, unassigned) [Example 49] | 30000 nM |  |  |
| C=CC(=O)N1C[C@@H]2CCOc3c(Cl)c(-c4c(O)cccc4F)c(F)c4ncnc(c34)N2C[C@@H]1C (single isomer, unassigned) [Example 43] |  |  | 2900 nM |
| C=CC(=O)N1CCN2c3ncnc4c(F)c(-c5c(F)ccc6[nH]nnc56)c(Cl)c(c34)OC[C@@H]2C1 (single isomer, unassigned) [Example 27] | 12000 nM |  |  |
| C=CC(=O)N1C[C@H]2COc3c(Cl)c(-c4c(C)ccc5[nH]cnc45)c(F)c4ncnc(c34)N2C[C@H]1C (single isomer, unassigned) [Example 47] | 11200 nM |  |  |
| C=CC(=O)N1CCN2c3ncnc4c(F)c(-c5c(C)ccc6[nH]nnc56)c(Cl)c(c34)OC[C@@H]2C1 (single isomer, unassigned) [Example 18] | 239 nM | 25% |  |
| C=CC(=O)N1C[C@H]2CCOc3c(Cl)c(-c4c(O)cccc4F)c(F)c4ncnc(c34)N2C[C@@H]1C (single isomer, unassigned) [Example 33] |  |  | 229 nM |
| C=CC(=O)N1C[C@H]2CCOc3c(Cl)c(-c4c(O)cccc4F)c(F)c4ncnc(c34)N2C[C@@H]1C (single isomer, unassigned) [Example 32] |  |  | 3130 nM |
| C=CC(=O)N1C[C@H]2CCOc3c(Cl)c(-c4c(O)cccc4F)c(F)c4ncnc(c34)N2C[C@H]1C (single isomer, unassigned) [Example 41] |  |  | 674 nM |
| C=CC(=O)N1C[C@H]2CCOc3c(Cl)c(-c4c(O)cccc4F)c(F)c4ncnc(c34)N2C[C@H]1C (single isomer, unassigned) [Example 40] |  |  | 2540 nM |
| C=CC(=O)N1CCN2c3ncnc4c(F)c(-c5c(F)ccc6[nH]ncc56)c(Cl)c(c34)OC[C@@H]2C1 (single isomer, unassigned) [Example 23] | 8960 nM |  |  |
| C=CC(=O)N1CCN2c3ncnc4c(F)c(-c5c(C)ccc6cc[nH]c(=O)c56)c(Cl)c(c34)OCCC2C1 (single isomer, unassigned) [Example 37, 8-[3-Chloro-1-fluoro-8-(prop-2-enoyl)-6,6a,7,8,9,10-hexahydro-5H-pyrazino[1′,2′:5,6][1,5]oxazocino[4,3,2-de]quinazolin-2-yl]-7-methylisoquinolin-1(2H)-one] | 180 nM |  |  |
| C=CC(=O)N1CCN2c3ncnc4c(F)c(-c5c(F)ccc6c5ncn6C)c(Cl)c(c34)OC[C@@H]2C1 (single isomer, unassigned) [Example 25] | 13900 nM |  |  |
| C=CC(=O)N1CCN2c3ncnc4c(Cl)c(-c5c(O)cccc5F)c(F)c(c34)OC[C@@H]2C1 (single isomer, unassigned) [Example 45] | 89 nM |  |  |
| CN(C)C/C=C/C(=O)N1CCN2c3ncnc4c(F)c(-c5c(O)cccc5F)c(Cl)c(c34)OC[C@@H]2C1 (single isomer, unassigned) [Example 15] | 19700 nM |  |  |
| C=CC(=O)N1CCN2c3ncnc4c(F)c(-c5c(C)ccc6cc[nH]c(=O)c56)c(Cl)c(c34)OCCC2C1 (single isomer, unassigned) [Example 35, 8-[3-Chloro-1-fluoro-8-(prop-2-enoyl)-6,6a,7,8,9,10-hexahydro-5H-pyrazino[1′,2′:5,6][1,5]oxazocino[4,3,2-de]quinazolin-2-yl]-7-methylisoquinolin-1(2H)-one] | 8510 nM |  |  |
| C=CC(=O)N1C[C@@H]2CCOc3c(Cl)c(-c4c(O)cccc4F)c(F)c4ncnc(c34)N2C[C@H]1C (single isomer, unassigned) [Example 38] |  |  | 3650 nM |

Continued, in another order:

| IC50 (KRasG12C [1]; [3]) | KRasG12C M. S. Binding Mean adduct % (KRasG12C [2]) | SMILES | IC50 (KRasG12C [1]; [4]) |
| --- | --- | --- | --- |
| 59 nM | 94% | CN(C)C/C=C/C(=O)N1CCN2c3ncnc4c(F)c(-c5c(O)cccc5F)c(Cl)c(c34)OC[C@@H]2C1 (single isomer, unassigned) [Example 14] |  |
| 140 nM |  | Cc1ccc2[nH]cnc2c1-c1c(Cl)c2c3c(ncnc3c1F)N1C[C@@H](C)N(C(=O)/C=C/CN(C)C)C[C@H]1CO2 (single isomer, unassigned) [Example 50] |  |
| 62 nM |  | C=CC(=O)N1CCN2c3ncnc4c(Cl)c(-c5c(O)cccc5F)c(F)c(c34)OC[C@@H]2C1 (single isomer, unassigned) [Example 44] |  |
| 12 nM | 96% | C=CC(=O)N1CCN2c3ncnc4c(F)c(-c5c(C)ccc6[nH]cnc56)c(Cl)c(c34)OC[C@@H]2C1 (single isomer, unassigned) [Example 8] |  |
| 6830 nM |  | Cc1ccc2[nH]ncc2c1-c1c(Cl)c2c3c(ncnc3c1F)N1CCN(C(=O)/C=C/CN(C)C)C[C@H]1CO2 (single isomer, unassigned) [Example 31] |  |
| 1210 nM |  | C=CC(=O)N1CCN2c3ncnc4c(F)c(-c5c(C)ccc6cc[nH]c(=O)c56)c(Cl)c(c34)OCCC2C1 (single isomer, unassigned) [Example 34, 8-[3-Chloro-1-fluoro-8-(prop-2-enoyl)-6,6a,7,8,9,10-hexahydro-5H-pyrazino[1′,2′:5,6][1,5]oxazocino[4,3,2-de]quinazolin-2-yl]-7-methylisoquinolin-1(2H)-one] |  |
| 19 nM | 98% | C=CC(=O)N1CCN2c3ncnc4c(F)c(-c5c(C)ccc6c5C(=O)NC6)c(Cl)c(c34)OC[C@@H]2C1 (single isomer, unassigned) [Example 1] |  |
| 98 nM | 95% | C=CC(=O)N1CCN2c3ncnc4c(F)c(-c5c(C)ccc6nc[nH]c(=O)c56)c(Cl)c(c34)OC[C@@H]2C1 (single isomer, unassigned) [Example 6] |  |
| 373 nM | 30% | C=CC(=O)N1CCN2c3ncnc4c(F)c(-c5c(C)ccc6cc[nH]c(=O)c56)c(Cl)c(c34)OC[C@@H]2C1 (single isomer, unassigned) [Example 17] |  |
| 46 nM |  | C=CC(=O)N1C[C@H]2COc3c(Cl)c(-c4c(C)ccc5cc[nH]c(=O)c45)c(F)c4ncnc(c34)N2C[C@H]1C (single isomer, unassigned) [Example 48] |  |
| 59 nM |  | C=CC(=O)N1C[C@H]2COc3c(Cl)c(-c4c(C)ccc5[nH]cnc45)c(F)c4ncnc(c34)N2C[C@H]1C (single isomer, unassigned) [Example 46] |  |
| 2 nM |  | C=CC(=O)N1CCN2c3ncnc4c(F)c(-c5c(C)ccc6cc[nH]c(=O)c56)c(Cl)c(c34)OCCC2C1 (single isomer, unassigned) [Example 36, 8-[3-Chloro-1-fluoro-8-(prop-2-enoyl)-6,6a,7,8,9,10-hexahydro-5H-pyrazino[1′,2′:5,6][1,5]oxazocino[4,3,2-de]quinazolin-2-yl]-7-methylisoquinolin-1(2H)-one] |  |
| 2860 nM |  | C=CC(=O)N1CCN2c3ncnc4c(F)c(-c5c(F)ccc6cc[nH]c(=O)c56)c(Cl)c(c34)OC[C@@H]2C1 (single isomer, unassigned) [Example 29] |  |
